Experimental data from ChEMBL document CHEMBL5052853, “Isoxazole derivatives targeting tacc3 as anticancer agents” (2021).
Active and inactive are the calls of the source. The calls are words filed in the database; no cut-off is given here.

Experiments:
Type in all cases: functional, cell-based
JIMT-1 [1] = experiment: Antiproliferative activity against human JIMT-1 cells after 72 hrs by SRB assay; settings: JIMT-1, 72 h
JIMT-1 [2] = experiment: Induction of apoptosis in human JIMT-1 cells at high concentration assessed as change in cleaved PARP levels and measured by Western blot analysis
RT-112 = experiment: Antiproliferative activity against human RT-112 cells after 3 days by SRB assay; settings: RT-112, 72 h
MCF-12A = experiment: Antiproliferative activity against human MCF-12A cells
JIMT-1 [3] = experiment: Induction of DNA damage in human JIMT-1 cells at high concentration assessed as change in p-H2AX levels and measured by Western blot analysis
RT-4 = experiment: Antiproliferative activity against human RT-4 cells after 3 days by SRB assay; settings: RT-4, 72 h
JIMT-1 [4] = experiment: Induction of apoptosis in human JIMT-1 cells at high concentration assessed as change in cleaved caspase-3 levels and measured by Western blot analysis
JIMT-1 [5] = experiment: Induction of mitotic arrest in human JIMT-1 cells at high concentration assessed as change in p-histone H3 levels and measured by Western blot analysis

Compound | IC50 (JIMT-1 [1]) [nM] | other results
c1ccc(COc2ccc(-c3cc(Nc4ccnc(N5CCOCC5)n4)on3)cc2)cc1 | > 10000 | 
COc1ccc(-c2cc(Nc3ccnc(N4CCC(F)CC4)n3)on2)cc1 | 130 | 
FC(F)(F)c1ccc(-c2cc(Nc3ccnc(N4CCOCC4)n3)on2)cc1 | > 10000 | 
COc1cccc(-c2cc(Nc3ccnc(N4CCOCC4)n3)on2)c1 | 3440 | 
COc1ccccc1-c1cc(Nc2ccnc(N3CCOCC3)n2)on1 | 8270 | 
Clc1ccc(-c2cc(Nc3ccnc(N4CCOCC4)n3)on2)cc1 | > 10000 | 
COc1ccc(-c2cc(Nc3ccnc(N4CCCCC4)n3)on2)cc1 | 116 | 
Fc1ccc(-c2cc(Nc3ccnc(N4CCOCC4)n3)on2)cc1 | > 10000 | 
CC(C)c1ccc(-c2cc(Nc3ccnc(N4CCOCC4)n3)on2)cc1 | 3610 | 
COc1ccc(-c2cc(Nc3ccnc(N4CCC(CCO)CC4)n3)on2)cc1 | 3970 | 
CC(F)(F)c1ccc(-c2cc(Nc3ccnc(N4CCOCC4)n3)on2)cc1 | > 10000 | 
CCOc1ccc(-c2cc(Nc3ccnc(N4CCOCC4)n3)on2)cc1 | 810 | 
COc1ccc(-c2cc(Nc3ccnc(N4CCCC4)n3)on2)cc1F | 49 | 
COc1ccc(-c2cc(Nc3ccnc(N4CCCC4)n3)on2)cc1 | 105 | 
Oc1ccc(-c2cc(Nc3ccnc(N4CCOCC4)n3)on2)cc1 | > 10000 | 
COc1ccc(-c2cc(Nc3cc(C)nc(N4CCC(F)CC4)n3)on2)cc1 | 1000 | 
c1ccc(-c2cc(Nc3ccnc(N4CCOCC4)n3)on2)cc1 | > 10000 | 
COc1ccc(-c2cc(Nc3ccnc(N4CCC(NN5CCOCC5)CC4)n3)on2)cc1 | 800 | 
COc1ccc(-c2cc(Nc3ccnc(N4CCC(C(=O)O)CC4)n3)on2)cc1 | > 10000 | 
CCN(Cc1ccncc1)Cc1c(O)ccc2c(-c3cc4ccccc4oc3=O)cc(=O)oc12 |  | Activity (JIMT-1 [2]): Active; IC50 (RT-112): 1200 nM; IC50 (MCF-12A): > 10000 nM; Activity (JIMT-1 [3]): Active; IC50 (RT-4): 5250 nM; Activity (JIMT-1 [4]): Active; Activity (JIMT-1 [5]): Active
COc1ccc(-c2cc(Nc3ccnc(N4CCS(=O)(=O)CC4)n3)on2)cc1 | > 10000 | 
COc1ccc(-c2cc(Nc3ccnc(N4CCC(C)CC4)n3)on2)cc1 | 204 | 
COc1ccc(-c2cc(Nc3nc(N4CCC(F)CC4)ncc3F)on2)cc1 | 540 | 
CCc1ccc(-c2cc(Nc3ccnc(N4CCOCC4)n3)on2)cc1 | 259 | 
COc1ccc(-c2cc(Nc3ccnc(N4CC5CCC(C4)O5)n3)on2)cc1 | 3090 | 
FC(F)Oc1ccc(-c2cc(Nc3ccnc(N4CCOCC4)n3)on2)cc1 | 4230 | 

Compound | IC50 (JIMT-1 [1]) [nM] | other results
c1cc(Nc2cc(-c3ccc4c(c3)OCO4)no2)nc(N2CCOCC2)n1 | 870 | 
COc1ccc(-c2cc(Nc3ccnc(N4CCOCC4)n3)on2)cc1OC | 730 | 
CSc1ccc(-c2cc(Nc3ccnc(N4CCOCC4)n3)on2)cc1 | 30 | 
COc1ccc(-c2cc(Nc3ccnc(N4CCC(C(F)(F)F)CC4)n3)on2)cc1 | 56 | 
COc1ccc(-c2cc(N(C)c3ccnc(N4CCOCC4)n3)on2)cc1 | 160 | 
COc1ccc(-c2cc(Nc3ccnc(N4CCNCC4)n3)on2)cc1 | > 10000 | 
COc1ccc(-c2cc(Nc3ccnc(N4CCOCC4)n3)on2)cc1Cl | 480 | 
COc1ccc(-c2cc(Nc3ccnc(N4C[C@@H]5C[C@H]4CO5)n3)on2)cc1 | 2020 | 
FC(F)(F)Oc1ccc(-c2cc(Nc3ccnc(N4CCOCC4)n3)on2)cc1 | > 10000 | 
CCCOc1ccc(-c2cc(Nc3ccnc(N4CCOCC4)n3)on2)cc1 | > 10000 | 
COc1ccc(-c2cc(Nc3ccnc(N4CCSCC4)n3)on2)cc1 | 113 | 
COc1ccc(-c2cc(Nc3ccnc(N4C5CCC4COC5)n3)on2)cc1F | 53 | 
CC(C)CNc1ccnc(NCc2csc(-c3ccccc3)n2)n1 |  | Activity (JIMT-1 [2]): Active; IC50 (RT-112): 8710 nM; IC50 (MCF-12A): > 10000 nM; Activity (JIMT-1 [3]): Active; IC50 (RT-4): 7070 nM; Activity (JIMT-1 [4]): Active; Activity (JIMT-1 [5]): Active
COc1ccc(-c2cc(Nc3ccnc(N4CCC(F)CC4)n3)on2)cc1F | 145 | 
CN(C)c1ccc(-c2cc(Nc3ccnc(N4CCOCC4)n3)on2)cc1 | 120 | 
COc1ccc(-c2cc(Nc3ccnc(N4CCOCC4)n3)on2)cn1 | 7300 | 
COc1ccc(-c2cc(Nc3ccnc(N4CCN(C)CC4)n3)on2)cc1 | 1560 | 
COc1ccc(-c2cc(Nc3ccnc(N4C[C@@H](C)O[C@@H](C)C4)n3)on2)cc1 | 230 | 
COc1ccc(-c2cc(Nc3ccnc(N4C5CCC4COC5)n3)on2)cc1 | 160 | 
Cc1ccc(-c2cc(Nc3ccnc(N4CCOCC4)n3)on2)cc1 | 640 | 
COc1ccc(-c2cc(Nc3ccnc(N4C[C@H]5C[C@@H]4CO5)n3)on2)cc1 | 480 | 
COc1ccc(-c2cc(Nc3ccnc(N4CCN(CCO)CC4)n3)on2)cc1 | > 10000 | 
COc1ccc(-c2cc(Nc3ccnc(N4CCC(F)(F)CC4)n3)on2)cc1 | 370 | 
CCOC(=O)C1CCN(c2nccc(Nc3cc(-c4ccc(OC)cc4)no3)n2)CC1 | > 10000 | 
COc1ccc(-c2cc(Nc3ccnc(N4CCOCC4)n3)on2)cc1F | 13 | 
CN(C)c1ccc(-c2cc(Nc3ccnc(N4CCC(F)CC4)n3)on2)cc1 | 157 | 
